From patent publication US12257251B2, “Use of FAK inhibitor in preparation of drug for treating tumors having NRAS mutation” (INXMED (NANJING) CO., LTD., priority 2019, dated 2025)

Key:
[1] = in vivo
[2] = tested on: GAK (NRAS^Q61L) melanoma cell line; experiment: GAK CDX model (melanoma with an NRAS mutation): tumor growth; assay type: in vivo, mouse; settings: for Tumor growth compared to the control group (in words): GAK model, daily treatment; for Mean TGI: daily, based on relative tumor volume on day 14
Method: (§1) 1.1. Test compound: BI853520, which was synthesized according to the method in the patent WO2010058032. BI853520 was formulated with 0.5% hydroxyethyl cellulose (Ashland).
(§2) 1.2. Cells: The melanoma cell line GAK was purchased from JCRB Cell Bank, and HMVII cells were purchased from Sigma. GAK originated in the inguinal lymph nodes of patients with vaginal melanoma, whereas HMVII originated in primary vaginal melanoma. GAK and HMVII cells were cultured in tissue culture flasks containing 5% CO2 at 37° C. The media were Ham's F12 containing 10% heat-inactivated FBS and Ham's F10 containing 15% FBS, respectively. All media were supplemented with 100 U/mL penicillin, […] streptomycin, and 2 mM GlutaMAX. All cell culture reagents were purchased from GIBCO.
(§3) Both HMVII and GAK cell lines carried an NRAS mutation at the Q61 position. HMVII (NRAS^Q61K) and GAK (NRAS^Q61L)
(§4) 1.3. Mice: 4-week-old female balb/c nude mice (purchased from Beijing Vital River Laboratory Animal Technology Co., Ltd.). After arriving in the animal room, the mice were allowed to acclimate to the new environment for at least 2 weeks before being used for assay. The animals were housed under standard conditions (temperature: 21.5±1.5° C., humidity: 55±10%). A Standard diet and autoclaved tap water were provided ad libitum. All animal care and experimental procedures were performed in accordance with the animal care ethics guidelines approved by the Medical Ethics Committee of Beijing Cancer Hospital and Research Institute.
(§5) To establish subcutaneous tumors, HMVII and GAK cells were harvested by trypsinization, centrifuged, washed and resuspended in ice-cold PBS+5% FCS. Then 100 l of the cell suspension containing 5×10^6 cells was injected subcutaneously into the right flank of nude mice (1 site per mouse). When tumors were well established and reached a median volume of approximately 400-600 mm^3, mice were randomly assigned to the treatment group and the control group.
(§6) 1.5. Administration: BI 853520 was formulated in 0.5% hydroxyethyl cellulose, which was intragastrically administered through gavage needle every day, and the dosage was 10 mL/Kg body weight.
(§7) Tumor diameters were measured twice a week with calipers. The volume [mm^3] of each tumor was calculated according to the equation “tumor volume=length×diameter^2×π/6”. Animals were sacrificed at the end of the study (approximately two weeks after the start of treatment). During the study, animals with necrotic tumors or tumors exceeding 2000 mm^3 in size were sacrificed for ethical reasons.
(§8) Tumor volumes were statistically assessed at the end of the assay. For tumor volume, relative values were used.
(§9) The number of observations, and the median, minimum and maximum tumor volumes were calculated. For a quick overview of possible treatment effects, the following metrics were calculated: • Relative tumor volume: (T/C)
(§10) [formula] • TGI from day 1 to day d: TGI=100×[(Cd−C1)−(Td−T1)]/(Cd−C1) • wherein, C1, T1=mean relative tumor volume in control and treatment groups at the start of the assay (day 1); • Cd, Td=mean relative tumor volume in control and treatment groups at the end of the assay (day d).
(§11) Statistical evaluation was performed using the Student's t-test function in Microsoft Excel, using two-tailed distribution and two-sample equal variance type.
(§12) The significance level was fixed at α=5%. […]

[3] = Body weight change (tolerability) in the HT-1080 mouse study; assay type: in vivo; settings: 12.5 mg/kg qd, end of the assay (day 13) versus day 1
Method: • 1. Materials and Method: • 1.1. Design of Research • Treatment began when the median tumor volume was between 70-130 mm^3. • 10 mice in the control group, and 7 mice in the treatment group. • Oral gavage once daily. • Control: 0.5% hydroxyethyl cellulose • BI 853520: 50 mg/kg, 25 mg/kg, 12.5 mg/kg, 6 mg/kg, • Tumor volume was measured 3 times a week and body weight was monitored daily. • Evaluation of treatment outcome was based on absolute volume of individual tumors. • Tolerability was assessed based on changes in body weight.
Tumor diameters were measured with calipers three times a week (Monday, Wednesday, and Friday). The volume of each tumor [in mm^3] was calculated according to the equation, “tumor volume=length×diameter^2×π/6”. To monitor the side effects of the treatment, the mice were checked daily for abnormalities and their body weights were measured daily. Animals were sacrificed at the end of the study (approximately two weeks after the start of treatment). During the study, animals with tumor necrosis or tumors larger than 2000 mm^3 were sacrificed ahead of schedule for ethical reasons.
At the end of the assay on day 13, statistical evaluation of tumor volume and body weight parameters was performed. […] A nonparametric approach was used, and the number of observations, median, minimum and maximum values were calculated. […]

[4] = tested on: HMVII (NRAS^Q61K) melanoma cell line; experiment: HMVII CDX model (melanoma with an NRAS mutation): tumor growth; assay type: in vivo, mouse; settings: for Tumor growth compared to the control group (in words): HMVII model, daily treatment; for Mean TGI: daily, based on relative tumor volume on day 14
Method: as §1, §2, §3, §4, §5, §6, §7, §8, §9, §10, §11, §12

COc1cc(C(=O)NC2CCN(C)CC2)c(F)cc1Nc1ncc(C(F)(F)F)c(Oc2cccc3c2C(=O)N(C)C3)n1 [BI853520]
Highest daily dose without limiting toxicity [1]: 100 mg/kg
Tumor growth compared to the control group (in words) [2]: inhibit tumor growth
Tumor growth compared to the control group (in words) ([2]; listed as BI 853520): delayed tumor growth
Mean tumor volume ([2]; GAK, 50 mg/kg (1st week), 25 mg/kg (2nd week), daily gavage, day 14): 548 ± 144 mm^3
Mean TGI ([2]; GAK, 50 mg/kg (1st week), 25 mg/kg (2nd week)): 80%
Mean TGI ([2]; GAK, 50 mg/kg (1st week), 25 mg/kg (2nd week), listed as BI 853520): 80%
Median weight change [3]: 5.7%
Tumor growth compared to the control group (in words) [4]: inhibit tumor growth
Tumor growth compared to the control group (in words) ([4]; listed as BI 853520): delayed tumor growth
Mean tumor volume ([4]; HMVII, 50 mg/kg (1st week), 25 mg/kg (2nd week), daily gavage, day 14): 671 ± 606 mm^3
Mean TGI ([4]; HMVII, 50 mg/kg (1st week), 25 mg/kg (2nd week)): 60%
Mean TGI ([4]; HMVII, 50 mg/kg (1st week), 25 mg/kg (2nd week), listed as BI 853520): 60%
